According to patent publication US11207379B2, “Peptides with anti-cancer activity” (IDP DISCOVERY PHARMA, S.L., priority 2016, dated 2021):
Where two headings read alike, the source gives them in different places. Bridge positions count the residues as written; N and C are the ends. Square brackets hold non-standard residues; d marks the D form. Ends that are not written are not given here. Peptide text beside a SMILES is read from it. R8 = C=CCCCCCC[C@@](C)(N)C(=O)O; S5 = C=CCCC[C@](C)(N)C(=O)O

Columns and labels:
Assay in all cases: Viability assay (MTT, Alamar Blue, hexosaminidase), 72 h
Type in all cases: cell-based
[1] = target: RAMOS, B lymphocyte (Burkitt's Lymphoma)
Description: RAMOS, B lymphocyte (Burkitt's Lymphoma), ATCC: CRL-1596
(§1) Cell lines A549, MCF-7 and RAMOS were cultured in incubator under CO2 (6%) at 37° C. in DMEM high glucose (Dulbecco's Modified Eagle Solution, Gibco-BRL 31966-21) medium with 10% fetal bovine serum inactivated (FBS) (Gibco-BRL 10106-169). Cell lines HL-60 and MM.1S were cultured in incubator at 37° C. in RPMI-1640 (Sigma R8758) medium with 10% of fetal bovine serum inactivated (FBS) and 2 mM glutamine (Sigma G7513). Cell lines BJ were cultured in incubator under CO2 (6%) at 37° C. in Eagle's Minimum Essential Medium (Sigma, M-2279) with 10% fetal bovine serum inactivated (FBS) (Gibco-BRL 10106-169).
(§2) During the amplification step and the assays adherent cells were rinsed with DPBS (Dulbecco's Phosphate Buffered Saline, Sigma D1283) three times and afterward treated for 5 minutes with trypsin ([…]) (Gibco-BRL, 15400054) in solution of DPBS at 37° C., and, once detached, transferred in the culturing medium. No-adherent cells were centrifuged and transferred in the culturing medium. Cells were counted in a Neubauer chamber after labelling with Tripan-Blue.
(§3) A549, MCF-7 and JB cells were seeded at a density of 5000 cells/well and HL-60, MM.1S and Ramos at 10000 cells/well in 100 μl of medium in 96 well plates. After 24 h, the compounds to be tested were added to calculate the dose/response curve at the starting concentration of 100 μM with serial dilutions (1:1). Controls are the untreated cells. Each experiment was performed in triplicate.
(§4) Cells were incubated during 72 h in incubator under CO2 atmosphere at 37° C. Cell viability was measured by means of MTT (3-(4,5-dimethylthiazol-2-yl)-2.5-diphenyltetrazolium bromide) assay, Alamar Blue® (Biosource DAL1100) and Hexosaminidase activity test, consecutively, following manufacturer instructions.
(§5) MTT: 1. Stock solution of MTT (475989 Calbiochem) was 5 mg/ml in PBS 1×. As negative control (experiment noise) 3 wells were treated with 20 μl/well of a solution of SDS 10% in H2O. The same control was used for Alamar Blue/Hexosaminidase. 10 μl/well of MTT solution were added and the plate was incubated for 3-4 hr. The medium was discarded and 100 μl of extracting buffer (PBS 1×, 15% SDS, 50% […] N,N-Dimethylformamide, pH 4.7) were added to each well. Plates were incubated for 16 h at room temperature under orbital shaking. Absorbance at 570 nm was finally measured.
(§6) Alamar Blue: 10 μl Alamar Blue solution was added to each well and the plates were incubated for […] in the incubator. Fluorescence ratio at 535/590 (excitation/emission) was measured in Cytofluor (Millipore) fluorimeter. Blank control was determined by lysis of untreated cells with con 2% of Triton X100, right before adding Alamar Blue solution.
(§7) Hexosaminidase activity test: after Alamar Blue lecture, medium was discarded and plates were rinsed once with PBS. 60 μl hexosaminidase substrate (p-nitrophenol-N-acetyl-beta-D-glucosamide 7.5 mM [Sigma N-9376], sodium citrate 0.1 M, pH 5.0, 0.25% Triton X-100) was added to each well and the plates were incubated at 37° C. for 2-5 h, according to the cell type (hexosaminidase activity changes according to the cell type). […] Blank control was the same as described before.
(§8) Data analysis was performed calculating the percentage of cell viability normalized vs. the values of negative control, which was considered equal to 100%. The dose/response curve was fitted through the sigmoidal equation dose-response (variable slope) and the EC50 values were calculated as follow: Y=Bottom+(Top−Bottom)/(1+10^{[(Log EC50−X)*HillSlope]},

[2] = target: A549, epithelial (lung cancer)
Description: A549, epithelial (lung cancer), ATCC:CCL-185
as §1, §2, §3, §4, §5, §6, §7, §8

[3] = target: MM.1S, B Lymphoblast (multiple myeloma)
Description: MM.1S, B Lymphoblast (multiple myeloma), ATCC: CRL-2974
as §1, §2, §3, §4, §5, §6, §7, §8

[4] = target: HL-60, promyeloblast (acute myelocytic leukemia, AML)
Description: HL-60, promyeloblast (acute myelocytic leukemia, AML), ECACC: 98070106
as §1, §2, §3, §4, §5, §6, §7, §8

[5] = target: MCF-7, epithelial (breast cancer)
Description: MCF-7, epithelial (breast cancer), ECACC: 86012803
as §1, §2, §3, §4, §5, §6, §7, §8

Compound	EC50 ([1]; Ramos cells, read-out: EC50) [µM]	EC50 ([2]; A549 cells, read-out: EC50) [µM]	EC50 ([3]; MM.1S cells, read-out: EC50) [µM]	EC50 ([4]; HL-60 cells, read-out: EC50) [µM]	EC50 ([5]; MCF7 cells, read-out: EC50) [µM]	EC50 [1] [µM]	EC50 [2] [µM]	EC50 [3] [µM]	EC50 [4] [µM]	EC50 [5] [µM]
CCc1ccc(/C=C2/SC(=S)NC2=O)cc1 [10058-F4, reference compound]	~57	> 100	> 100	54 ± 2	~52					
CC(C)C[C@@H]1NC(=O)[C@H](C)NC(=O)[C@H](C)NC(=O)[C@H](Cc2ccccc2)NC(=O)[C@](C)(NC(=O)[C@H](CCCNC(=N)N)NC(=O)[C@H](CCCCN)NC(=O)[C@H](CC(C)C)NC(=O)[C@H](CCC(=O)O)NC(=O)[C@H](CC(N)=O)NC(=O)[C@H](CCCNC(=N)N)NC(=O)[C@H](CCCNC(=N)N)NC(=O)[C@H](CCC(N)=O)NC(=O)[C@@H](N)CCCNC(=N)N)CCCCCC/C=C\CCC[C@@](C)(C(N)=O)NC(=O)[C@H](CC(=O)O)NC(=O)[C@H](CCCNC(=N)N)NC1=O [IDP-S04, RQRRNELKRXFAALRDX-H2] (H-RQRRNELKR[R8]FAALRD[S5]-NH2; staple (Z) 10-17; N-terminus assumed)	~64		19 ± 1	~24	~60					
CC(C)C[C@@H]1NC(=O)[C@H](C)NC(=O)[C@H](Cc2ccccc2)NC(=O)[C@H](Cc2ccccc2)NC(=O)[C@](C)(NC(=O)[C@H](CCCNC(=N)N)NC(=O)[C@H](CCCCN)NC(=O)[C@H](CC(C)C)NC(=O)[C@H](CCC(=O)O)NC(=O)[C@@H](N)CC(N)=O)CCCCCC/C=C\CCC[C@@](C)(C(N)=O)NC(=O)[C@H](CC(=O)O)NC(=O)[C@H](CCCNC(=N)N)NC1=O [IDP-S13, NELKRXFFALRDX-NH2] (H-NELKR[R8]FFALRD[S5]-NH2; staple (Z) 6-13; N-terminus assumed)	> 100		> 100	> 100	> 100					
CC[C@H](C)[C@H](NC(=O)[C@@H](NC(=O)[C@@H](NC(=O)[C@H](CCCCN)NC(=O)[C@@H]1CCCN1C(=O)[C@H](C)N)C(C)C)C(C)C)C(=O)N[C@]1(C)CCCCCC/C=C\CCC[C@@](C)(C(=O)N[C@@H](CC(C)C)C(=O)N[C@@H](CO)C(N)=O)NC(=O)[C@H](Cc2ccc(O)cc2)NC(=O)[C@H](C)NC(=O)[C@H]([C@@H](C)O)NC(=O)[C@H](C)NC(=O)[C@H](CCCCN)NC(=O)[C@H](CCCCN)NC1=O [IDP-S17, APKVVIXKKATAYXLS] (H-APKVVI[R8]KKATAY[S5]LS-NH2; staple (Z) 7-14; N-terminus and C-terminus assumed)						> 100	> 100	> 100	> 100	> 100
CC[C@H](C)[C@@H]1NC(=O)[C@H](Cc2ccc(O)cc2)NC(=O)[C@H](C)NC(=O)[C@H]([C@@H](C)O)NC(=O)[C@H](C)NC(=O)[C@H](CCCCN)NC(=O)[C@](C)(NC(=O)[C@H](CC(C)C)NC(=O)[C@@H](NC(=O)[C@@H](NC(=O)[C@@H](NC(=O)[C@H](CCCCN)NC(=O)[C@@H]2CCCN2C(=O)[C@H](C)N)C(C)C)C(C)C)[C@@H](C)CC)CCCCCC/C=C\CCC[C@@](C)(C(=O)N[C@@H](CO)C(N)=O)NC1=O [IDP-S18, APKVVILXKATAYIXS] (H-APKVVIL[R8]KATAYI[S5]S-NH2; staple (Z) 8-15; N-terminus and C-terminus assumed)						> 100	> 100	> 100	> 100	> 100
CC[C@H](C)[C@H](NC(=O)[C@]1(C)CCC/C=C\CCCCCC[C@@](C)(NC(=O)[C@@H](NC(=O)[C@@H](NC(=O)[C@H](CCCCN)NC(=O)[C@@H]2CCCN2C(=O)[C@H](C)N)C(C)C)C(C)C)C(=O)N[C@@H](CC(C)C)C(=O)N[C@@H](CCCCN)C(=O)N[C@@H](CCCCN)C(=O)N[C@@H](C)C(=O)N[C@@H]([C@@H](C)O)C(=O)N[C@@H](C)C(=O)N1)C(=O)N[C@@H](CC(C)C)C(=O)N[C@@H](CO)C(N)=O [IDP-S22, APKVVXLKKATAXILS] (H-APKVV[R8]LKKATA[S5]ILS-NH2; staple (Z) 6-13; N-terminus and C-terminus assumed)						> 100	> 100	> 100	> 100	> 100
APKXVIFKKAXAYILS-OH [IDP-S14]	55	9.1 ± 0.8	6.6 ± 0.9	7.8 ± 0.4						
QRRNXLKRAFAXLRD-OH [IDP-S312]			~25							
RQRRNELKRSFFALRDQ [IDP-L11, RQRRNELKRSFFALRDQ]						> 100		> 100	> 100	> 100
RQRRNELKRXFFALRDX-NH2 [IDP-S12]	52 ± 2	50	22 ± 2	23 ± 1	42 ± 2					
RQRRNXLKRAFAXLRD-OH [IDP-S311]			~15							
